Like-named read-outs stand apart in the source and are kept apart here.
Key:
[1] = tested on: human colon carcinoma CX-1; assay: anti-human colon carcinoma CX-1 activity using nude mice; format: in vivo, Swiss nu/nu mice (human tumor)
From the text: Human colon carcinoma cell line CX-1 has been chosen by the National Cancer Institute as a mode for cancer drug screening (NCI Protocol 3C2H2). It was established in culture from the surgical explant of the primary colon adenocarcinoma of a person with no previous chemotherapy. The cultured CX-1 cells, upon subcutaneous injection, can grow readily in nude mice as a moderately- to well-differentiated human colon carcinoma. CEA is expressed as expected for differentiated colon carcinoma cells. Abundant keratin, consistent with epithelial origin, is present. Increased uptake and prolonged retention of delocalized lipophilic cations are observed.
Swiss nu/nu mice obtained from Taconic Farm were housed in a pathogen-free environment. Tumors subcutaneously passaged in nude mice were excised under sterile conditions and converted to a single cell suspension using a metal grid with a 0.4 mm mesh. Red blood cells were lysed by incubation with 0.17M ammonium chloride at 4° C. for 20 minutes. Cells were scored for viability with trypan blue. Viable CX-1 cells (2.5 million) made up in 0.1 ml of […]. The mice were randomly allocated into a control group (five mice) and a treatment group (five mice per group). The drug treatment was commenced the next day. Doses and schedules were developed empirically and were based mainly on information on LD50 and LD1O obtained from preliminary toxicity studies. The control group received an equivalent volume of hydroxypropyl-β-cyclodextrin-5% glucose solution.
The pharmaceutical compositions tested comprised solutions in 5% glucose subjected to sonication at concentrations of 1 mg/ml. Those compounds which were not completely dissolved by this procedure were dissolved hydroxypropyl-β-cyclodextrin using the following method. Hydroxypropyl-β-cyclodextrin (45 g) was mixed with 100 ml of sterilized, double distilled water and stirred for four hours. Each of the compounds to be tested (20 mg) was mixed with 10 ml of hydroxypropyl-β-cyclodextrin solution and sonicated for 60 minutes in the dark. This solution was then diluted in 5% glucose to yield a final compound concentration of 0.5 mg/ml, and further sonicated for 60 minutes in the dark to assure that the compound was completely dissolved.
When the growth of tumors in the control group reached the exponential phase and the size of the tumor was palpable (usually 20 to 30 days after tumor implantation), the experiments were terminated. Tumors in each mouse were excised and weighed using an analytical balance. Total tumor weight in each group from five mice was calculated. Per cent tumor inhibition between the treated group and the control group was then calculated for each group.

CV-1 cells = assay: selective killing assay, colony number reduced to 50% of control, normal monkey kidney epithelial cell line CV-1; format: cell-based; details: 24 hours treatment; for IC50: Primates
From the text: (§1) The control received culture media only.

EJ cells = assay: colony assay of Example 1 with human bladder carcinoma EJ cell line; format: cell-based; details: for Selectivity: CV-1/EJ; for IC50: Homo sapiens, EJ, 24 h; for IC50 / EJ (IC50): Table IV, human bladder carcinoma, 24 hours treatment;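 for all read-outs here: colony formation assay with 24 h compound exposure at 37 °C, then 7–10 days drug-free regrowth, colonies stained with crystal violet, controls given medium alone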
Method: (§2) Human colon carcinoma cell line CX-1 or normal monkey kidney epithelial cell line CV-1 was chosen as representatives of cancer cells and normal cells, respectively. […] CX-1 cells (2,000 cells/well) and CV-1 cells (1,000 cells/well) were plated in 24-well plastic culture plates. […] The control received culture media only. Cells were treated with compounds of General Formulas (I) to (V) at 37° C. for 24 hours. After rinsing with fresh culture medium three times, the cells were further incubated at 37° C. for 7 to 10 days. Cell colonies were fixed and stained with 2% crystal violet in 70% ethanol for 10 minutes and rinsed in water. […] The selectivity is defined as the ratio of IC50 for CV-1 and IC50 for CX-1.

CX-1 cells = assay: selective killing assay, colony number reduced to 50% of control, human colon carcinoma cell line CX-1; format: cell-based; details: for Selectivity (ratio of IC50 for CV-1 and IC50 for CX-1): CV-1/CX-1; for CX-1 (IC50): Table III; for CX-1 (IC50) / IC50: human colon carcinoma, 24 hours treatment, colony count after 7 to 10 days; for IC50: Homo sapiens, CX-1, Table III;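 for all read-outs here: colonies stained with crystal violet and counted, control cells given medium alone, exposure at 37 °C, normal monkey kidney epithelial CV-1 cells as the non-cancer comparator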
CRL 1420 cells = assay: colony assay of Example 1 with human pancreatic carcinoma CRL 1420 cell line; format: cell-based; details: for Selectivity: CV-1/CRL-1420; for IC50: Homo sapiens, 24 h; for IC50 / CRL-1420(IC50): Table VII, human pancreatic carcinoma, 24 hours treatment;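 for all read-outs here: colony formation assay, cells exposed for 24 h then regrown 7 to 10 days without compound, colonies stained with crystal violet, control given medium alone, normal reference CV-1 monkey kidney epithelial cells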
LOX cells = assay: colony assay of Example 1 with human melanoma LOX cell line; format: cell-based; details: for Selectivity: CV-1/LOX; for IC50: Homo sapiens, LOX, 24 h; for IC50 / LOX(IC50): Table V, human melanoma, 24 hours treatment;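 for all read-outs here: colony formation assay with 24 h exposure at 37 °C, then 7 to 10 days of regrowth, crystal violet staining of colonies, control wells given medium alone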
Method: as §2

human melanoma LOX = assay: survival of nude mice implanted with human melanoma LOX; format: in vivo, male athymic Swiss nu/nu mouse (human tumor); details: for response vs control in vivo at 5 mg/kg: Mus musculus, ip, read-out: T/C; for T/C: 5 mg/kg i.p. on day 1, 4, 8, 11, 15, 18
MCF-7 cells = assay: colony assay of Example 1 with human breast carcinoma MCF-7 cell line; format: cell-based
From the text: as §1

[2] = CV-1, Table III, normal monkey kidney epithelial cells, colony count after 7 to 10 days
[3] = Mus musculus, ip, 24 h, 5 mg/kg i.p. on day 1, 9, 13, read-out: Tumor Inhibition
[4] = Table III, normal monkey kidney epithelial cells, colony count after 7 to 10 days

| SMILES | IC50 (CV-1 cells; CV-1, 24 h, Table IV) [µg/mL] | IC50 (CV-1 cells; CV-1, 24 h, Table V) [µg/mL] | IC50 (CV-1 cells; CV-1, 24 h, Table VII) [µg/mL] | Selectivity (EJ cells) | Selectivity (ratio of IC50 for CV-1 and IC50 for CX-1) (CX-1 cells) | CX-1 (IC50) (CX-1 cells) [µg/mL] | Selectivity (CRL 1420 cells) | Selectivity (LOX cells) | IC50 (LOX cells) [µg/mL] | IC50 (CX-1 cells) [µg/mL] | CV-1 (IC50) (CV-1 cells; Table V) [µg/mL] | CRL-1420(IC50) (CRL 1420 cells) [µg/mL] | LOX(IC50) (LOX cells) [µg/mL] | also measured |
| --- | --- | --- | --- | --- | --- | --- | --- | --- | --- | --- | --- | --- | --- | --- |
| CCn1c(=Cc2ccc3ccccc3[n+]2CC)sc(=C2Sc3ccccc3N2C)c1=O [Compound 21] | 8 | 8 | 8 | 364 | 800 | 0.01 | 261 | 261 | 0.03 |  |  |  |  | inhibition in vivo at 2.5 mg/kg ([1]; Mus musculus, ip, 24 h, 2.5 mg/kg i.p. on day 1, 5, 8, 12, read-out: Tumor Inhibition): 50.2%; IC50 (EJ cells): 0.022 µg/mL; IC50 (CRL 1420 cells): 0.03 µg/mL; response vs control in vivo at 5 mg/kg (human melanoma LOX; 5 mg/kg i.p. on day 1, 2.5 mg/kg on day 5, 8): 133% |
| CCn1c(=Cc2oc3ccccc3[n+]2C)sc(=C2Sc3ccccc3N2C)c1=O [Compound 8] |  | 20 |  |  | 500 |  |  | > 200 | < 0.1 | 0.04 |  |  |  | inhibition in vivo at 5 mg/kg ([1]; Mus musculus, ip, 24 h, 5 mg/kg i.p. on day 1, 5, 9, 13, read-out: Tumor Inhibition): 55.1%; response vs control in vivo at 5 mg/kg (human melanoma LOX; 24 h, 5 mg/kg i.p. on day 1, 4, 8, 11, 15): 142% |
| CC[n+]1c(C=c2sc(=C3Sc4ccccc4N3C)c(=O)n2-c2ccccc2)sc2ccccc21 [Compound 7] |  |  |  |  | 300 |  |  |  |  | 0.005 |  |  |  | inhibition in vivo at 5 mg/kg ([1]; Mus musculus, ip, 24 h, 5 mg/kg i.p. on day 1, 5, 7, read-out: Tumor Inhibition): 42%; IC50 (CV-1 cells; [2]): 1.5 µg/mL; response vs control in vivo at 5 mg/kg (human melanoma LOX; 24 h, 5 mg/kg i.p. on day 1, 4, 8, 12): 182% |
| CCN1C(=c2sc(=Cc3oc4ccccc4[n+]3CC)n(CC)c2=O)Sc2ccccc21 [Compound 19] | 20 | 20 | 10 | 200 | 500 |  | 111 | > 200 | < 0.1 | 0.02 |  |  |  | inhibition in vivo at 5 mg/kg [1, 3]: 60.4%; IC50 (CV-1 cells; CV-1, 24 h, Table VI): 10 µg/mL; IC50 (CV-1 cells; [2]): 10 µg/mL; IC50 (EJ cells): 0.1 µg/mL; Selectivity (MCF-7 cells; CV-1/MCF-7): 167; IC50 (MCF-7 cells; Homo sapiens, MCF7, 24 h, Table VI, human breast carcinoma, 24 hours treatment): 0.06 µg/mL; IC50 (CRL 1420 cells): 0.09 µg/mL |
| CCn1c(=Cc2oc3ccccc3[n+]2C)sc(=C2Sc3ccccc3N2C)c1=O [Compound 10] |  |  |  |  | 500 | 0.04 | 250 | > 300 |  |  | > 30 | 0.08 | 0.1 | Tumor Inhibition ([1]; 5 mg/kg i.p. on day 1, 5, 9, 13): 66.0%; CV-1 (IC50) (CV-1 cells; [4]): 20 µg/mL; CV-1 (IC50) (CV-1 cells; Table VII): 20 µg/mL; T/C (human melanoma LOX): 171% |
| CCn1c(=Cc2oc3ccccc3[n+]2C)sc(=C2Sc3ccccc3N2C)c1=O [Compound 13] |  |  |  | 222 | > 667 | 0.03 | > 400 | > 222 |  |  | > 20 | 0.05 | 0.09 | inhibition in vivo at 20 mg/kg ([1]; Mus musculus, ip, 24 h, 20 mg/kg i.p. on day 1, 5, 8, 12, 15, 19, read-out: Tumor Inhibition): 87.7%; CV-1 (IC50) (CV-1 cells; [4]): > 20 µg/mL; CV-1 (IC50) (CV-1 cells; Table IV): 20 µg/mL; CV-1 (IC50) (CV-1 cells; Table VII): > 20 µg/mL; EJ (IC50) (EJ cells): 0.09 µg/mL; response vs control in vivo at 5 mg/kg (human melanoma LOX; 24 h, 5 mg/kg i.p. on day 1, 4, 8, 11): 147% |
| CCn1c(=Cc2oc3ccccc3[n+]2C)sc(=C2Sc3ccccc3N2C)c1=O [Compound 9] | 20 |  | 20 | 400 | 500 | 0.04 | 222 | > 300 |  |  | > 30 | 0.09 | 0.1 | inhibition in vivo at 5 mg/kg [1, 3]: 45.2%; EJ (IC50) (EJ cells): 0.05 µg/mL; T/C (human melanoma LOX): 142% |

— patent US5360803A, “Composition and method for treating cancer” (Dan Farber Cancer Institute, priority 1992, dated 1994)
